Data taken from patent publication US9458499B2, “Nucleic acid binding dyes and uses therefor” (PROMEGA CORPORATION, priority 2009, dated 2016).
Where a name gives a salt, the structure may show the parent alone.

Columns and labels:
Format in all cases: physicochemical
dsDNA = experiment: Quantum yield, absorbance and emission of dyes with dsDNA; conditions: for absorbance λEx dsDNA / emission λmaxEM dsDNA: Table 1; for Em λ (ds DNA): Example 1
ds DNA = experiment: Relative brightness of stains with ds DNA (protocol of Nygren et al.)
Protocol: (§1) The relative brightness of certain compounds (Table 2) was determined based on the protocol in Nygren, J., Svanvik, N., Kubista, M. (1998) Biopolymers, Vol. 46, 39-51, which is incorporated by reference herein.

ss DNA = experiment: Relative brightness of stains with ss DNA (protocol of Nygren et al.)
Protocol: as §1

Compound | quantum yield (Φ) dsDNA (dsDNA) | absorbance λEx dsDNA (dsDNA) [nm] | emission λmaxEM dsDNA (dsDNA) | Em λ (ds DNA) (dsDNA) [nm] | Relative Brightness ds DNA (ds DNA) | Relative Brightness ss DNA (ss DNA)
CCCN(CCCN(C)C)c1cc(/C=C2\Sc3cccc4c3N2CCC4)c2ccccc2[n+]1C [PBI 3678, 1-methyl-4-((5,6-dihydrothiazolo[5,4,3-ij]quinolin-2(4H)-ylidene)methyl)-2-((3-(dimethylamino)propyl)(propyl)amino)quinolinium trifluoroacetate] | 0.68 | 494 | 529 |  |  | 
CCN(CC)c1cc(/C=C2\Sc3cccc4c3N2CCC4)c2ccccc2[n+]1-c1ccccc1 [PBI 3676, 2-(diethylamino)-4-((5,6-dihydrothiazolo[5,4,3-ij]quinolin-2(4H)-ylidene)methyl)-1-phenylquinolinium trifluoroacetate] | 0.48 | 494 | 527 |  |  | 
CN(C)CCCN(CCCN(C)C)C1=C/C(=C\c2sc3cccc4c3[n+]2CCC4)c2ccccc2N1c1ccccc1 [PBI 3646, 1-((2-(Bis(3-(dimethylamino)propyl)amino)-1-phenylquinolin-4(1H)-ylidene)methyl)-7,8-dihydro-6H-thiazolo[5,4,3-ij]quinolin-9-ium] | 0.43 | 504 | 531 | 531 |  | 
CN(C)CCCN(CCCN(C)C)C1=C/C(=C\c2sc3cccc4c3[n+]2CCC4)c2ccccc2N1CCCc1ccccc1 [PBI 3675, 1-((2-(bis(3-(dimethylamino)propyl)amino)-1-(3-phenylpropyl)quinolin-4(1H)-ylidene)methyl)-7,8-dihydro-6H-thiazolo[5,4,3-ij]quinolin-9-ium] | 0.31 | 503 | 535 | 535 |  | 
CCCN(CCC[N+](C)(C)C)c1cc(/C=C2\Sc3cccc4c3N2CCC4)c2ccc(OC)cc2[n+]1-c1ccccc1 [PBI 4054, 4-((5,6-dihydrothiazolo[5,4,3-ij]quinolin-2(4H)-ylidene)methyl)-7-methoxy-1-phenyl-2-(propyl(3-(trimethylammonio)propyl)amino)quinolinium] |  |  |  |  | 1.19 | 3.10
CN(C)CCN(Cc1ccccc1)c1cc(/C=C2/Sc3cccc4c3N2CCC4)c2ccccc2[n+]1-c1ccccc1 [PBI 3666, 2-(benzyl(2-(dimethylamino)ethyl)amino)-4-((5,6-dihydrothiazolo[5,4,3-ij]quinolin-2(4H)-ylidene)methyl)-1-phenylquinolinium trifluoroacetate] | 0.34 | 494 | 535 |  |  | 
COc1ccc2c(/C=C3\Sc4cccc5c4N3CCC5)cc(N(CCC[N+](C)(C)C)CCC[N+](C)(C)C)[n+](Cc3ccccc3)c2c1 [PBI 4050, 1-Benzyl-2-(bis(3-(trimethylammonio)propyl)amino)-4-((5,6-dihydrothiazolo[5,4,3-ij]quinolin-2(4H)-ylidene)methyl)-7-methoxyquinolinium] |  |  |  |  | 0.63 | 1.23
CCCN(CCCN(C)C)c1cc(/C=C2/Sc3cccc4c3N2CCC4)c2ccccc2[n+]1CCCc1ccccc1 [PBI 3679, 4-((5,6-Dihydrothiazolo[5,4,3-ij]quinolin-2(4H)-ylidene)methyl)-2-((3-(dimethylamino)propyl)(propyl)amino)-1-(3-phenylpropyl)quinolinium] | 0.34 | 499 | 533 | 533 |  | 
CCCN(CCCN(C)C)C1=C/C(=C\c2sc3cccc4c3[n+]2CCC4)c2ccccc2N1c1ccccc1 [PBI 3654, 1-((2-((3-(Dimethylamino)propyl)(propyl)amino)-1-phenylquinolin-4(1H)-ylidene)methyl)-7,8-dihydro-6H-thiazolo[5,4,3-ij]quinolin-9-ium] | 0.70 | 498 | 529 | 529 |  | 
CN1C=C/C(=C\c2sc3cccc4c3[n+]2CCC4)c2ccccc21 [compound 3632, 1-((1-Methylquinolin-4(1H)-ylidene)methyl)-7,8-dihydro-6H-thiazolo[5,4,3-ij]quinolin-9-ium] | 0.2 | 504 | 529 | 529 |  | 
CCCN(CCCN(C)C)c1cc(/C=C2\Sc3cccc4c3N2CCC4)c2ccccc2[n+]1Cc1ccccc1 [PBI 3677, 1-benzyl-4-((5,6-dihydrothiazolo[5,4,3-ij]quinolin-2(4H)-ylidene)methyl)-2-((3-(dimethylamino)propyl)(propyl)amino)quinolinium trifluoroacetate] | 0.72 | 494 | 533 |  |  | 
CCCN(CCC[N+](C)(C)C)c1cc(/C=C2\Sc3cccc4c3N2CCC4)c2ccc(OC)cc2[n+]1C [compound 4053, 4-((5,6-dihydrothiazolo[5,4,3-ij]quinolin-2(4H)-ylidene)methyl)-7-methoxy-1-methyl-2-(propyl(3-(trimethylammonio)propyl)amino)quinolinium] |  |  |  |  | 1.26 | 1.82
COc1ccc2c(/C=C3\Sc4cccc5c4N3CCC5)cc(N(C)C)[n+](Cc3ccccc3)c2c1 [PBI 4051, 1-benzyl-4-((5,6-dihydrothiazolo[5,4,3-ij]quinolin-2(4H)-ylidene)methyl)-2-(dimethylamino)-7-methoxyquinolinium] |  |  |  |  | 0.67 | 1.10
COc1ccc2c(/C=C3\Sc4cccc5c4N3CCC5)cc(N(CCC[N+](C)(C)C)CCC[N+](C)(C)C)[n+](C)c2c1 [PBI 4052, 2-(bis(3-(trimethylammonio)propyl)amino)-4-((5,6-dihydrothiazolo[5,4,3-ij]quinolin-2(4H)-ylidene)methyl)-7-methoxy-1-methylquinolinium] |  |  |  |  | 0.74 | 2.41
CCCN(CCCN(C)C)c1cc(/C=C2/Sc3ccccc3N2C)c2ccccc2[n+]1-c1ccccc1 [SYBR Green 1, reference compound] |  |  |  |  | 1 | 
CN(C)CCN(C)C1=C/C(=C\c2sc3cccc4c3[n+]2CCC4)c2ccccc2N1c1ccccc1 [compound 3568, 1-((2-((2-(Dimethylamino)ethyl)(methyl)amino)-1-phenylquinolin-4(1H)-ylidene)methyl)-7,8-dihydro-6H-thiazolo[5,4,3-ij]quinolin-9-ium] | 0.39 | 466 | 529 | 529 |  | 
CCCCN(CCCN(C)C)c1cc(/C=C2/Sc3cccc4c3N2CCC4)c2ccccc2[n+]1-c1ccccc1 [PBI 3667, 2-(butyl(3-(dimethylamino)propyl)amino)-4-((5,6-dihydrothiazolo[5,4,3-ij]quinolin-2(4H)-ylidene)methyl)-1-phenylquinolinium trifluoroacetate] | 0.68 | 494 | 529 |  |  | 
